According to PMC6042686 (PLoS Biology, 2018):
“And” between values parts separate entries of the source, which are not always exact repeats. Identical values can stand only once. Like-named read-outs stand apart in the source and are kept apart here.

Experiments:
tsV1_M579T = tsV1_M579T (Tupaia chinensis, UniProt L8Y7X1, M598T); experiment: cell-based; format: cell-based, tree shrew
BALB/c mice [1] = details: in vivo; for Change of food intake when the compound is added to the food: mouse
tree shrews = format: in vivo, tree shrew (Tupaia belangeri chinensis);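 for Normalized food-intake, tree shrew (individual replicate): normalized to average intake of feed without capsaicin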
tree shrew TRPV1 (tsV1) = tree shrew TRPV1 (tsV1) (Tupaia chinensis, UniProt L8Y7X1); experiment: cell-based; details: for EC50: EC50 for activation of tsV1
mouse TRPV1 (mV1) = target: T1, mouse TRPV1 (mV1) (Mus musculus, UniProt Q704Y3); experiment: cell-based; details: EC50 for activation of mV1
T1 construct: expressed in transfected cells; host or cells: HEK293T

human TRPV1 (hV1) = target: T2, human TRPV1 (hV1) (Homo sapiens, UniProt Q8NER1); experiment: cell-based
T2 construct: expressed in transfected cells; host or cells: HEK293T

polar bear TRPV1 (pV1) = polar bear TRPV1 (pV1) (Ursus maritimus, UniProt A0A384CG69); experiment: cell-based
tsV1_M579S = tsV1_M579S (Tupaia chinensis, UniProt L8Y7X1, M598S); experiment: cell-based; set-up: species or system tree shrew
tsV1_M579G = tsV1_M579G (Tupaia chinensis, UniProt L8Y7X1, M598G); experiment: cell-based; set-up: species or system tree shrew
tsV1_M579A = tsV1_M579A (Tupaia chinensis, UniProt L8Y7X1, M598A); experiment: cell-based; set-up: species or system tree shrew
tsV1_M579V = tsV1_M579V (Tupaia chinensis, UniProt L8Y7X1, M598V); experiment: cell-based; set-up: species or system tree shrew
mV1_T551M [2] = target: T3, mV1_T551M (Mus musculus, UniProt Q704Y3, T551M); experiment: cell-based
T3 construct: expressed in transfected cells; host or cells: HEK293T (patch clamp); HEK293 (calcium imaging)

mV1_T551M [3] = target: T3, mV1_T551M; format: cell-based
tree shrew DRG neurons = format: cell-based
mV1_T551V = target: T4, mV1_T551V (Mus musculus, UniProt Q704Y3, T551V); experiment: cell-based
T4 construct: expressed in transfected cells; host or cells: HEK293T

BALB/c mice [4] = details: in vivo
tree shrew = details: in vivo
mouse paw tissue = details: in vivo
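Throughout, for Normalized food-intake, mouse (individual replicate): normalized to average intake of feed without capsaicin.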

T1 sequence (Q704Y3 whole entry): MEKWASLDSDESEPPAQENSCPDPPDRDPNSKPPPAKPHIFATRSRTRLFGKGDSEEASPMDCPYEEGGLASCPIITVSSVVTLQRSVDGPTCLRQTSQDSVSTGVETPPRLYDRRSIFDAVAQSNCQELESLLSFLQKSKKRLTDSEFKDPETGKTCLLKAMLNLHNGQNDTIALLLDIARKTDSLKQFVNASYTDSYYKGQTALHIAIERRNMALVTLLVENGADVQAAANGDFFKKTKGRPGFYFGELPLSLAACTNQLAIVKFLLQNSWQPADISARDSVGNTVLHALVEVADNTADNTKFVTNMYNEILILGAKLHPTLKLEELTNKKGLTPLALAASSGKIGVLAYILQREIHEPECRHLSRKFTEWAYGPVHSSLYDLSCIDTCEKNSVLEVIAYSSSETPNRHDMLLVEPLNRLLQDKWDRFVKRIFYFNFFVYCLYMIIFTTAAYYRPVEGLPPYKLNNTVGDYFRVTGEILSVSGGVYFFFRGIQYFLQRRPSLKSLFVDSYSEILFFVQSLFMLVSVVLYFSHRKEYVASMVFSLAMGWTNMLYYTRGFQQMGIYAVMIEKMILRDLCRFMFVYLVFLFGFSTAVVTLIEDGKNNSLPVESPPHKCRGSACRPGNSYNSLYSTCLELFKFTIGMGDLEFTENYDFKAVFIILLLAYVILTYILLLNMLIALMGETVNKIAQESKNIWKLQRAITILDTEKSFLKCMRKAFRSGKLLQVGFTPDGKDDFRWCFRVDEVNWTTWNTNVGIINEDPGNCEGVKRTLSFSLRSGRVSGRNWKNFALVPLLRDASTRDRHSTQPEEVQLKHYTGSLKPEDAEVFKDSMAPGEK
Chain of tree shrew TRPV1 (tsV1) (L8Y7X1 1-828): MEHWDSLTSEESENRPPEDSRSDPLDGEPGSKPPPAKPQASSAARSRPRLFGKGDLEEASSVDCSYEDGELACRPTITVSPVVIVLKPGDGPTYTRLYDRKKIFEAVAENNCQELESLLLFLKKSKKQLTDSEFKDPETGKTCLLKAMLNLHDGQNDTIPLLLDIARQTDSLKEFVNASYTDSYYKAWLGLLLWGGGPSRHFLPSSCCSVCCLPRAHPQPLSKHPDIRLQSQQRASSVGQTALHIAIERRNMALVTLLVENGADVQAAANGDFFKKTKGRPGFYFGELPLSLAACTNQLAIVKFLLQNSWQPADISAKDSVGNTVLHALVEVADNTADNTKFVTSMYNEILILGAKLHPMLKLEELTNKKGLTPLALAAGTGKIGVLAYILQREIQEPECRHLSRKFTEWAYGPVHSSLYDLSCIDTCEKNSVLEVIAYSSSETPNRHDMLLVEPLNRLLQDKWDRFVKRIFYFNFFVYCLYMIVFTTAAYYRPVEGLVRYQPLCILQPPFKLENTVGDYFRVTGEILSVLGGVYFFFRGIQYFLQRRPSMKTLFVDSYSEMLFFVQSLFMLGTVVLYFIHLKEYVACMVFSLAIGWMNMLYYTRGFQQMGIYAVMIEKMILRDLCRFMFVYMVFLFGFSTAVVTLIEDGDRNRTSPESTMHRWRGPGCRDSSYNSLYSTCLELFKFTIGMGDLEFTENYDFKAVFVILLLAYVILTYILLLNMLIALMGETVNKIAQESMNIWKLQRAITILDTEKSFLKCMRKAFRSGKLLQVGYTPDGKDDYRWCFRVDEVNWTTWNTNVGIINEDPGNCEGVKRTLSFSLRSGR
T3 sequence (Q704Y3 whole entry T551M): as the sequence (Q704Y3 whole entry) above, with T551M counted along it
Chain of tsV1_M579T (L8Y7X1 1-828 M598T): as the sequence (L8Y7X1 1-828) above, with M598T counted along it
Chain of tsV1_M579S (L8Y7X1 1-828 M598S): as the sequence (L8Y7X1 1-828) above, with M598S counted along it
T2 sequence (Q8NER1 whole entry): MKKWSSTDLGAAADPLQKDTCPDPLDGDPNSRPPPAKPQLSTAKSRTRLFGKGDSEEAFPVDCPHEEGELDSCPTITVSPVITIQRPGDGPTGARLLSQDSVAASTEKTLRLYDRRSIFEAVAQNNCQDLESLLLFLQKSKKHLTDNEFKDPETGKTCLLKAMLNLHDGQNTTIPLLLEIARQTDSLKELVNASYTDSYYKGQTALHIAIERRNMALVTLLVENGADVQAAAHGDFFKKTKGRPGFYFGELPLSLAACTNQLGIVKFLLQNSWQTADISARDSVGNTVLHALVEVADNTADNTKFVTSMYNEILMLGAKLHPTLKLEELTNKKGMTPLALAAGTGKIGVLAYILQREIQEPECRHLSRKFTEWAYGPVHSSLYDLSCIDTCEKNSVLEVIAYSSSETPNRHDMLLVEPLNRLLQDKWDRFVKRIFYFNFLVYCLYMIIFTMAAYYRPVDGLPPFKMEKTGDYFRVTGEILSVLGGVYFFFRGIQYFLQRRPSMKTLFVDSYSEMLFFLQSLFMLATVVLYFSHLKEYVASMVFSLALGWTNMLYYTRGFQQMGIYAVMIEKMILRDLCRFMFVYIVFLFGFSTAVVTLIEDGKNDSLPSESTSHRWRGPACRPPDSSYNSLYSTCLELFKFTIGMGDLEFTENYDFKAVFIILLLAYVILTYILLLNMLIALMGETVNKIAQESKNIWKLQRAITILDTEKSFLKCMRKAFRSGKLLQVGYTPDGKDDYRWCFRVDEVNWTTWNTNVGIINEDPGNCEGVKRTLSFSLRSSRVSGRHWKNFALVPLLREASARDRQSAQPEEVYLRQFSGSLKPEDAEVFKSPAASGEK
Chain of tsV1_M579G (L8Y7X1 1-828 M598G): as the sequence (L8Y7X1 1-828) above, with M598G counted along it
Chain of polar bear TRPV1 (pV1) (A0A384CG69 1-841): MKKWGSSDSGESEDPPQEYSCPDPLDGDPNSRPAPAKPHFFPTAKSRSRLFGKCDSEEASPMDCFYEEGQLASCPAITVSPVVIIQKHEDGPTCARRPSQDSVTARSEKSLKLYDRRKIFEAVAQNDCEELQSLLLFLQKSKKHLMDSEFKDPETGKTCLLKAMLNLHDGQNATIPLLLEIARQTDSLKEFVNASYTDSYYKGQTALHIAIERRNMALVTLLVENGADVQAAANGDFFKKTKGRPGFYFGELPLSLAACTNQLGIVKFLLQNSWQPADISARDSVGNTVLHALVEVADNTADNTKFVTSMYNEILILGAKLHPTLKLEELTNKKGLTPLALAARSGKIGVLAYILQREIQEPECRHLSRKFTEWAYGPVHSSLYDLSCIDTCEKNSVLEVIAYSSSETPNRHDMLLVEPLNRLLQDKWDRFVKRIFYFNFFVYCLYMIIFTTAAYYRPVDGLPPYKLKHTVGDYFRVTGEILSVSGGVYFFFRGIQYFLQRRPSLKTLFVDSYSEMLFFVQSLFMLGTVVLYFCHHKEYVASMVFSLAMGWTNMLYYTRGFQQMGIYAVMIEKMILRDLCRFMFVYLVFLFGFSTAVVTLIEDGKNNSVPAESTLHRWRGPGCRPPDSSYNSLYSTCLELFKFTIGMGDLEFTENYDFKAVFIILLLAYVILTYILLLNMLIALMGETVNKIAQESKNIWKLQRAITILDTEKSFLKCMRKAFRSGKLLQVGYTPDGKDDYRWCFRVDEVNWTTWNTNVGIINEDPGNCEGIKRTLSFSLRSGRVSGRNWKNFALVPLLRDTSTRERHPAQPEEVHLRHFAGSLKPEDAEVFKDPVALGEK
T4 sequence (Q704Y3 whole entry T551V): as the sequence (Q704Y3 whole entry) above, with T551V counted along it
Chain of tsV1_M579A (L8Y7X1 1-828 M598A): as the sequence (L8Y7X1 1-828) above, with M598A counted along it
Chain of tsV1_M579V (L8Y7X1 1-828 M598V): as the sequence (L8Y7X1 1-828) above, with M598V counted along it

O=C(/C=C/C=C/c1ccc2c(c1)OCO2)N1CCCCC1 [piperine]
Change in the EC50 on mutating the homologous site (mV1_T551M or tsV1_M579T) (tsV1_M579T; hek293t cells): approximately 2 fold

CCCCC[C@H](O)CC(=O)CCc1ccc(O)c(OC)c1 [gingerol]
Change in the EC50 on mutating the homologous site (mV1_T551M or tsV1_M579T) (tsV1_M579T): approximately 6 fold

CCCCC/C=C/C=C/C(=O)NCCc1ccc(O)c(OC)c1 [Cap2]
Change of food intake when the compound is added to the food (BALB/c mice [1]): significantly decreased | Change of food intake when the compound is added to the food (tree shrews; in vivo): slight increase | Normalized food-intake, AVE_tree shrew (tree shrews; in vivo): 1.13 and 1.269 and 1.38 and 1.28 | EC50 (tree shrew TRPV1 (tsV1)): 1900 µM and ~1900 µM | EC50 of tsV1 larger than the EC50 of mV1 (tree shrew TRPV1 (tsV1); hek293t cells): approximately 2,500 fold | EC50 (mouse TRPV1 (mV1)): 0.74 ± 0.05 µM | EC50 (human TRPV1 (hV1)): 5.73 ± 0.05 µM | EC50 (polar bear TRPV1 (pV1)): 0.87 ± 0.04 µM | EC50 (tsV1_M579T): 2.34 ± 0.26 µM | Shift of concentration-response curve relative to wild-type tsV1 (tsV1_M579T): large shifts to the left | Change in the EC50 on mutating the homologous site (mV1_T551M or tsV1_M579T) (tsV1_M579T; hek293t cells): approximately 1,000 fold | EC50 of tsV1_M579T lower than EC50 of wild-type tsV1 (tsV1_M579T; hek293t cells): approximately 1,000 fold | EC50 (tsV1_M579S): 5.46 µM | Shift of concentration-response curve relative to wild-type tsV1 (tsV1_M579S): large shifts to the left | EC50 (tsV1_M579G): 920 µM | EC50 (tsV1_M579A): 1070 µM | EC50 (tsV1_M579V): 830 µM | EC50 (mV1_T551M [2]): 151.4 ± 0.12 µM | Calcium signal in mV1_T551M-expressing HEK293 cells (mV1_T551M [3]): largely diminished calcium signal

CCCCC/C=C/C(=O)CCc1ccc(O)c(OC)c1 [shogaol]
Change in the EC50 on mutating the homologous site (mV1_T551M or tsV1_M579T) (tsV1_M579T; hek293t cells): approximately 10 fold

COc1cc(CNC(=O)CCCC/C=C/C(C)C)ccc1O [capsaicin]
Normalized food-intake, mouse (individual replicate) (BALB/c mice [1]): 0.359 and 0.496 and 0.524 and 0.168 and 0.264 and 0.288 and 0.063 and 0.143 and 0.169 and 0.008 and 0.009 and 0.007 | Change of food intake when the compound is added to the food (BALB/c mice [1]): significantly reduced in a concentration-dependent manner | Normalized food-intake, AVE_tree shrew (tree shrews; 24 hours, n = 3): 1.087 and 1.119 and 1.28 and 1.255 | Change of food intake when the compound is added to the food (tree shrews; in vivo): no such change | Normalized food-intake, tree shrew (individual replicate) (tree shrews; in vivo): 1.004 and 1.211 and 1.046 and 1.034 and 1.223 and 1.101 and 1.209 and 1.372 and 1.259 and 1.119 and 1.381 and 1.265 | Calcium response of DRG neurons (tree shrew DRG neurons): much weaker response | EC50 (tree shrew TRPV1 (tsV1)): 5.2 ± 0.13 µM | EC50 (mouse TRPV1 (mV1)): 0.2 µM and ~0.2 µM | Change in the EC50 on mutating the homologous site (mV1_T551M or tsV1_M579T) (tsV1_M579T): approximately 10 fold | EC50 of tsV1_M579T lower than EC50 of wild-type tsV1 (tsV1_M579T): approximately 50 fold | EC50 (mV1_T551M [2]): ~2.1 µM | EC50 (mV1_T551V): ~1.5 µM | paw licking after capsaicin (S1B Fig), mouse, single animals (BALB/c mice [4]): 74.03 and 80.09 and 18.24 and 91.1 and 11.82 and 100.82 and 8.03 and 45.87 and 22.39 and 126.21 | paw licking after capsaicin (S1B Fig), AVE_mouse (BALB/c mice [4]; mouse): 55.056 and 60.664 | Capsaicin-induced acute pain behavior (paw licking) (tree shrew): absent | paw licking after capsaicin (S1B Fig), AVE_tree shrew (tree shrew): 1.836 and 1.5525 | paw licking after capsaicin (S1B Fig), tree shrew, single animals (tree shrew): 3.34 and 1.67 and 2.84 and 0.95 and 1.47 and 1.89 and 1.46 and 0.74 and 2 and 2.07 and 2.32 and 2.01 and 1.28 | Paw tissue histology (H&E) after hind paw injection (mouse paw tissue): significantly increased
